Holding throughout (assay type): biochemical
In one test the target is T1, JAK2 (Homo sapiens, UniProt O60674).
T1 construct: made in house; host or cells: SF9 insect cells (baculovirus)
The test can be described thus: JAK2 inhibition (Table 4). The conditions noted are these: read-out: JAK2 Ki.

The target in another test is T2, JAK1 (Homo sapiens, UniProt P23458).
T2 construct: made in house; host or cells: SF9 insect cells (baculovirus)
The test can be described thus: JAK1 inhibition (Table 4). The conditions noted are these: read-out: JAK1 Ki.

For a further test, the target named is T3, TYK2 (Homo sapiens, UniProt P29597).
T3 construct: made in house; host or cells: SF9 insect cells (baculovirus)
T3 sequence (P29597 873-1187): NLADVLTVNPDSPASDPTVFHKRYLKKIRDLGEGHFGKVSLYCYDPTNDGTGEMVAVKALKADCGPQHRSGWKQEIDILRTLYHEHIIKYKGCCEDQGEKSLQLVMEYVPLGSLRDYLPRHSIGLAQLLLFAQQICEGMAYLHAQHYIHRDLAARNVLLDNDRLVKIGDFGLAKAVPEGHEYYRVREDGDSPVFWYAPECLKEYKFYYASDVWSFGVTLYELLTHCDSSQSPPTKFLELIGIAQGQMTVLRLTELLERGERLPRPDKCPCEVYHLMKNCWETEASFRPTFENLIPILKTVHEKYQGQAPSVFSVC
Briefly: TYK2 inhibition (Table 4).

The target in a further test is T4, JAK3 (Homo sapiens, UniProt P52333).
T4 construct: made in house; host or cells: SF9 insect cells (baculovirus)
Briefly: JAK3 inhibition (Table 4). The conditions noted are these: read-out: JAK3 Ki.

Molecules are shown by their SMILES.

T4 sequence (P52333 783-1124): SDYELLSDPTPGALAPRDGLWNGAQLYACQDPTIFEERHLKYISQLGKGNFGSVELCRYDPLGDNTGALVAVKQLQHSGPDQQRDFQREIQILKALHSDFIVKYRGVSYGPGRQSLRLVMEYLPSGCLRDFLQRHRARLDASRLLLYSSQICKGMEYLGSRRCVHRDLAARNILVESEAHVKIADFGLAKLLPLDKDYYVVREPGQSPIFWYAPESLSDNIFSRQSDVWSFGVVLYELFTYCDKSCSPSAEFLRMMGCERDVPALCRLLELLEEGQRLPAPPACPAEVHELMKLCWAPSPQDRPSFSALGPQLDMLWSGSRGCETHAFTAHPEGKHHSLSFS
T2 sequence (P23458 852-1154): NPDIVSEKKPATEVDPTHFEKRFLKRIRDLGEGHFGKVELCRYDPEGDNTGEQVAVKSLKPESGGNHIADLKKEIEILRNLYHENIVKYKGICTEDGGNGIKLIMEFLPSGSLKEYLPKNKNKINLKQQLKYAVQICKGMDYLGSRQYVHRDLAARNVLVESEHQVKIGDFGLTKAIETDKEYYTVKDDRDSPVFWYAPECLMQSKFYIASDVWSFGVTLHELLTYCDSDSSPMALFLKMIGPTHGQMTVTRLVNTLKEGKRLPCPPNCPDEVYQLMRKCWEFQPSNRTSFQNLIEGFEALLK
T1 sequence (O60674 812-1132): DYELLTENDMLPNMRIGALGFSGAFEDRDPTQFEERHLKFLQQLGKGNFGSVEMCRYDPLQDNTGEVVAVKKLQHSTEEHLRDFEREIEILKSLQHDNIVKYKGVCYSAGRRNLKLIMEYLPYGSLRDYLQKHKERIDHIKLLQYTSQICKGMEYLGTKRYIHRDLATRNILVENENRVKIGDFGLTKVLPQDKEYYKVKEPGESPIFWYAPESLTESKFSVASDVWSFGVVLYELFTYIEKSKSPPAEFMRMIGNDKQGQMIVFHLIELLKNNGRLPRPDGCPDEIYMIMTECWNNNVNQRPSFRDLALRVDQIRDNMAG

As for `CC(O)c1nc2cnc3[nH]ccc3c2n1C1CC2CCC1O2` (single isomer, unassigned) [Example 846, endo-1-[1-(7-Oxa-bicyclo[2.2.1]hept-2-yl)-1,6-dihydro-1,3,5,6-tetraaza-as-indacen-2-yl]-ethanol], the Ki at JAK2 was determined as 369 nM; at JAK1 it was 90.6 nM; on TYK2, 749 nM; on JAK3, 261 nM.

For `CC(O)c1nc2cnc3[nH]ccc3c2n1C1CC2CCC1O2` (single isomer, unassigned) [Example 847, endo-1-[1-(7-Oxa-bicyclo[2.2.1]hept-2-yl)-1,6-dihydro-1,3,5,6-tetraaza-as-indacen-2-yl]-ethanol], the Ki came to 530 nM at JAK2, 105 nM at JAK1, 279 nM at TYK2 and 381 nM at JAK3.

As to `CS(=O)(=O)NCc1nc2cnc3[nH]ccc3c2n1C1CC2CCC1O2` (single isomer, unassigned) [Example 849, endo-N-[1-(7-Oxa-bicyclo[2.2.1]hept-2-yl)-1,6-dihydro-1,3,5,6-tetraaza-as-indacen-2-ylmethyl]-methanesulfonamide], the inhibition constant (Ki) at JAK2 came to 515 nM; at JAK1, 50.8 nM; on TYK2, 459 nM; at JAK3, 592 nM.

For the compound `CS(=O)(=O)NCc1nc2cnc3[nH]ccc3c2n1C1CC2CCC1O2` (single isomer, unassigned) [Example 850, endo-N-[1-(7-Oxa-bicyclo[2.2.1]hept-2-yl)-1,6-dihydro-1,3,5,6-tetraaza-as-indacen-2-ylmethyl]-methanesulfonamide], the Ki at JAK2 amounted to 134 nM; at JAK1 it was 60.5 nM; on TYK2 it was 361 nM; at JAK3, 106 nM.

Turning to `OCc1nc2cnc3[nH]ccc3c2n1C1CC2CCC1O2` (single isomer, unassigned) [Example 851, endo-[1-(7-Oxa-bicyclo[2.2.1]hept-2-yl)-1,6-dihydro-1,3,5,6-tetraaza-as-indacen-2-yl]-methanol], the Ki is 53.3 nM at JAK2, 25.9 nM on JAK1, 49.9 nM on TYK2 and 24.4 nM on JAK3.

In the case of `OCc1nc2cnc3[nH]ccc3c2n1C1CC2CCC1O2` (single isomer, unassigned) [Example 852, endo-[1-(7-Oxa-bicyclo[2.2.1]hept-2-yl)-1,6-dihydro-1,3,5,6-tetraaza-as-indacen-2-yl]-methanol], the Ki on JAK2 is 140 nM; at JAK1, 29.1 nM; on TYK2, 89.3 nM; at JAK3, 117 nM.

As to `CCN1CCC(n2c([C@@H](C)O)nc3cnc4[nH]ccc4c32)C(F)(F)C1` (single isomer, unassigned) [Example 879], the Ki at JAK2 was 22.2 nM; at JAK1, 3.88 nM; on TYK2 it was 26.5 nM; on JAK3, 27.9 nM.

In the case of `CCN1CCC(n2c([C@@H](C)O)nc3cnc4[nH]ccc4c32)C(F)(F)C1` (single isomer, unassigned) [Example 880], the Ki was 19.4 nM at JAK2, 1.95 nM on JAK1, 24.7 nM on TYK2 and 4.97 nM on JAK3.

On to `CC(O)c1nc2cnc3[nH]ccc3c2n1C1CC2CCC1O2` (single isomer, unassigned) [Example 905, (o)-1-[1-(7-Oxa-bicyclo[2.2.1]hept-2-yl)-1,6-dihydro-1,3,5,6-tetraaza-as-indacen-2-yl]-ethanol], for which the Ki stood at 96.4 nM at JAK2, 14.7 nM at JAK1, 57.1 nM on TYK2 and 128 nM on JAK3.

As to `CC(O)c1nc2cnc3[nH]ccc3c2n1C1CC2CCC1O2` (single isomer, unassigned) [Example 907, (o)-1-[1-(7-Oxa-bicyclo[2.2.1]hept-2-yl)-1,6-dihydro-1,3,5,6-tetraaza-as-indacen-2-yl]-ethanol], the Ki on JAK2 is 142 nM; at JAK1, 24 nM; on TYK2, 76.9 nM; at JAK3 it was 195 nM.

Take `CC(O)c1nc2cnc3[nH]ccc3c2n1C1CC2CCC1O2` (single isomer, unassigned) [Example 936, (endo)-1-[1-(7-Oxa-bicyclo[2.2.1]hept-2-yl)-1,6-dihydro-1,3,5,6-tetraaza-as-indacen-2-yl]-ethanol]: the inhibitory constant (Ki) is 403 nM at JAK2, 79.8 nM at JAK1, 215 nM at TYK2 and 334 nM on JAK3.

In the case of `CC(O)c1nc2cnc3[nH]ccc3c2n1C1CC2CCC1O2` (single isomer, unassigned) [Example 937, Endo-1-[1-(7-Oxa-bicyclo[2.2.1]hept-2-yl)-1,6-dihydro-1,3,5,6-tetraaza-as-indacen-2-yl]-ethanol], the Ki on JAK2 was determined as 174 nM; at JAK1 it was 80.5 nM; on TYK2, 144 nM; at JAK3 it was 73.3 nM.

As for `C[C@@H](O)c1nc2cnc3[nH]ccc3c2n1C1CCNCC1(F)F` (single isomer, unassigned) [Example 939], the Ki at JAK2 turned out to be 18.1 nM; at JAK1, 0.68 nM; at TYK2 it was 7.2 nM; on JAK3, 5.58 nM.

On to `c1cc2c(ncc3ncn([C@@H]4CCCNC4)c32)[nH]1` [Example 2, (R)-1-Piperidin-3-yl-1,6-dihydro-1,2,3,5,6-tetraaza-as-indacene], for which the Ki at JAK2 came out at 518 nM; at JAK1, 177 nM; on TYK2, 1510 nM; on JAK3 it was 913 nM.

Take `CC(C)(C)OC(=O)N1CC(n2cnc3cnc4[nH]ccc4c32)C1` [Example 3, 3-(6H-1,2,3,5,6-Tetraaza-as-indacen-1-yl)-azetidine-1-carboxylic acid tert-butyl ester]: the Ki at JAK2 came to 191 nM; on JAK1, 348 nM; on TYK2, 1640 nM; at JAK3, 905 nM.

For `O=C(c1ccccc1)N1CCC[C@@H](n2cnc3cnc4[nH]ccc4c32)C1` [Example 6, Phenyl-[(R)-3-(6H-1,2,3,5,6-tetraaza-as-indacen-1-yl)-piperidin-1-yl]-methanone], the Ki on JAK2 came out at 21.4 nM; on JAK1 it was 11.9 nM; on TYK2 it was 134 nM; at JAK3, 373 nM.

As to `O=C(Cc1ccccc1)N1CCC(n2cnc3cnc4[nH]ccc4c32)CC1` [Example 7, 2-Phenyl-1-[4-(6H-1,2,3,5,6-tetraaza-as-indacen-1-yl)-piperidin-1-yl]-ethanone], the Ki was 13.3 nM on JAK2, 8.6 nM at JAK1, 64.6 nM at TYK2 and 283 nM on JAK3.

`c1cc2c(ncc3ncn([C@@H]4CCCN(Cc5cocn5)C4)c32)[nH]1` [Example 8, 1-((R)-1-Oxazol-4-ylmethyl-piperidin-3-yl)-1,6-dihydro-1,2,3,5,6-tetraaza-as-indacene]: the Ki at JAK2 is 43.8 nM; on JAK1, 12.9 nM; on TYK2, 134 nM; on JAK3 it was 68.9 nM.

Take `CS(=O)(=O)N1CCC[C@@H](n2cnc3cnc4[nH]ccc4c32)C1` [Example 9, 1-((R)-1-Methanesulfonyl-piperidin-3-yl)-1,6-dihydro-1,2,3,5,6-tetraaza-as-indacene]: the Ki is 6.5 nM at JAK2, 7.48 nM at JAK1, 35.4 nM on TYK2 and 16.6 nM at JAK3.

In the case of `N#CCCN1CCC[C@@H](n2cnc3cnc4[nH]ccc4c32)C1` [Example 10, 3-[(R)-3-(6H-1,2,3,5,6-Tetraaza-as-indacen-1-yl)-piperidin-1-yl]-propionitrile], the Ki is 21.7 nM at JAK2, 12.8 nM at JAK1, 88.5 nM on TYK2 and 21.2 nM at JAK3.

With `NC(=O)CN1CCC[C@@H](n2cnc3cnc4[nH]ccc4c32)C1` [Example 11, 2-[(R)-3-(6H-1,2,3,5,6-Tetraaza-as-indacen-1-yl)-piperidin-1-yl]acetamide], the inhibition constant (Ki) at JAK2 stood at 37.4 nM; on JAK1 it was 17.3 nM; on TYK2, 176 nM; on JAK3 it was 94.5 nM.

For the compound `c1ccc(N2CCC[C@@H](n3cnc4cnc5[nH]ccc5c43)C2)cc1` [Example 12, 1-((R)-1-Phenyl-piperidin-3-yl)-1,6-dihydro-1,2,3,5,6-tetraaza-as-indacene], the Ki at JAK2 came out at 35.7 nM; at JAK1 it was 31 nM; on TYK2 it was 170 nM; on JAK3 it was 17.2 nM.

Regarding `c1cc(N2CCC[C@@H](n3cnc4cnc5[nH]ccc5c43)C2)ncn1` [Example 14, 1-((R)-1-Pyrimidin-4-yl-piperidin-3-yl)-1,6-dihydro-1,2,3,5,6-tetraaza-as-indacene], the Ki at JAK2 is 13.6 nM; on JAK1, 11.4 nM; on TYK2, 85.6 nM; on JAK3, 26.5 nM.

As for `OCCc1nc2cnc3[nH]ccc3c2n1[C@@H]1CCCN(Cc2ccccc2)C1` [Example 15, 2-[1-((R)-1-Benzyl-piperidin-3-yl)-1,6-dihydro-1,2,3,5,6-tetraaza-as-indacen-2-yl]ethanol], the Ki on JAK2 is 86.5 nM; at JAK1, 102 nM; at TYK2, 443 nM; at JAK3, 769 nM.

Turning to `OCCc1nc2cnc3[nH]ccc3c2n1[C@@H]1CCCNC1` [Example 16, 2-((R)-1-Piperidin-3-yl-1,6-dihydro-1,2,3,5,6-tetraaza-as-indacen-2-yl)ethanol], the inhibition constant Ki at JAK2 was determined as 680 nM; on JAK1, 219 nM; at TYK2 it was 758 nM; at JAK3, 1270 nM.

By Ki is commonly meant a measure of affinity in units of concentration, obtained from inhibition or displacement.

Source of the values: US8461328B2, “Tricyclic heterocyclic compounds, compositions and methods of use thereof” (Genentech, Inc., priority 2010, dated 2013).
